Numbered stars: 1 amine (or outer) side, 2 acyl side, 3 side chain; on linkers, the order of the positions; unused ones are H or OH. Bridge positions count the residues as written; N and C are the ends. Ends that are not written are not given here. Peptide text beside a SMILES is read from it. Suc = O=C(CCC(=O)[*:2])[*:1]
B1: CVP-200, backbone cyclic peptide (n = 3, bridge size 10, ring size 42) (peptide)
chain: GLQRMVLVDLKGGYGRKKRRQRRR-NH2
modifications: also: backbone cyclic: spacer on N-terminal amine linked to side chain of added lysine, that lysine's position not given here, linker at N via dicarboxylic acid spacer (n = 3), other end not in the chain

Tests used:
TcPink1 [1] = target: T1, TcPink1 (Tribolium castaneum, UniProt D6WMX4); assay: Peptide binding to immobilized protein in vitro, field-effect biosensing (FEB); conditions: AGILE Dev Kit graphene biosensor chip, protein 500 nM immobilized by EDC/sulfo-NHS, analyte 50 µL in PBS pH 7.4, Hill fit, mean ± SEM, read-out: KD of the peptides binding to TcPink1
T1 construct: host or cells: E. coli Rosetta (DE3)
Description: In brief: Protein was immobilized/cross-linked into the carboxyl group present on the activated graphene biosensor chip. The analyte is applied in solution to the chip and when an interaction occurs, an alteration in the current (I) is measured and recorded in real-time throughout the experiment. The entire cycle of the experiment starts with calibration using PBS (pH 7.4) to record the baseline equilibration response. Followed by the association step by adding analyte (50 µL) at the desired concentrations in PBS (pH 7.4). After the experiment, data at the concentration points of the analytes were exported from 3 transistors, averaged, and any background drift recorded in PBS was subtracted.
Binding data of the peptides to immobilized protein in vitro was gathered using an AGILE Dev Kit label-free binding assay (Cardea, San Diego, CA, USA). […] After a rinse in PBS, base-line current levels for the chip were recorded for at least 5 min. Next, the PBS was aspirated, and a droplet of the tested analyte (50 μL) was applied to the chip and the change in the sensor chip readout was recorded, after that the analyte was aspirated and the chip was rinsed with PBS. […] After data were gathered, the responses of the sensors on a single assay chip were averaged, and any background drift recorded in PBS was subtracted. […] The KD values were calculated by GraghPad Prism 9, statistical analysis software. […]

trypsin [2] = test system: T2, trypsin; assay: Stability of peptides under tryptic degradation, HPLC; format: in vitro ADME; conditions: pig, trypsin from porcine pancreas; porcine pancreas trypsin (1 µL of 1 mg/mL); peptide 2 mg in 800 µL 50 mM Tris pH 8.0; 37 °C; 120 min; RP-HPLC, 214 nm; relative to time zero; n = 3; read-out: Degradation of the peptide by trypsin after 120 min
T2 construct: purchased Sigma-Aldrich; host or cells: porcine pancreas
Description: (§1) We tested the stability of the peptides using trypsin, an endopeptidase with specificity for cleaving the amide bond between a cationic amino acid and the next amino acid in the C-terminal direction, which is found in the digestive systems of many vertebrates, and it is commonly used as an important enzymatic reagent in biochemistry and biology.
(§2) The stability of the peptides was measured independently under tryptic degradation at 37 °C (by trypsin degradation of the peptide) and was determined by HPLC analysis (for more experimental details, see “Materials and Methods”) (n = 3). The starting time point (0 min, 100%) represents the peptide at the beginning of each experiment. […] Separation was performed by HPLC in the presence of 0.1% trifluoroacetic acid and detected by absorbance at 214 nm. Peptide amounts were calculated relative to the quantities determined at time point zero.
(§3) In brief: The stability studies of the peptides were performed by dissolving the peptides in Tris buffer and incubating them with trypsin solution at 37 °C using HPLC.
(§4) Further details: Trypsin from porcine pancreas was purchased from Sigma-Aldrich (Saint Louis, MO, USA). Peptide (2 mg) was dissolved in Tris buffer (800 µL, 50 mM (pH 8.0)). The peptide solution was mixed with 1 μL of trypsin solution (1 mg/mL in 50 mM Tris buffer (pH 8.0)). The peptide was incubated at 37 °C and samples (90 μL) were taken at 0, 5, 30, 60, and 120 min. The samples were mixed with TFA/CH3CN/H2O (2%/5%/93%, 90 µL). The peptides were analyzed by analytical reverse-phase high-pressure liquid chromatography (RP-HPLC) 1260 Infinity II LC System from Agilent, (Santa Clara, CA, USA) using a Luna 5 μm C18(2) 100 Å (250 × 4.6 mm) column (Phenomenex, Torrance, CA, USA) at 1 mL/min. The solvent systems used were A (H2O with 0.1% TFA) and B (CH3CN with 0.1% TFA). A linear gradient of 5–50% B in 15 min was applied, and the detection was at 214 nm and 254 nm.

trypsin [3] = target: T3, trypsin (Sus scrofa, UniProt P00761); assay: as above; format: in vitro ADME; conditions: pig, trypsin from porcine pancreas, porcine pancreas trypsin (1 µL of 1 mg/mL), peptide 2 mg in 800 µL 50 mM Tris pH 8.0, 37 °C, RP-HPLC, 214 nm, relative to time zero, n = 3; for metabolised at 0.5 h, 2.5 mg/mL: 30 min, read-out: Degradation of the peptide by trypsin after 30 min
T3 construct: purchased Sigma-Aldrich; host or cells: porcine pancreas
Description: as §1, §2, §3, §4

TcPink1 [4] = target: T1, TcPink1; assay: Cross-linking coupled with mass spectrometry (CLMS), DMTMM cross-linker; format: binding; conditions: DMTMM cross-link CVP198-CVP198 (both partners the peptide), in the CVP-198 + tcPINK1 sample
Description: (§5) Here, two water-soluble cross-linkers were used for the CLMS: 4-(4,6-dimethoxy-1,3,5-triazin-2-yl)-4-methyl-morpholinium chloride (DMTMM), and bis(sulfosuccinimidyl)suberate (BS3). DMTMM is a hetero-bifunctional amine-to-carboxylic acid crosslinker, and BS3 is a homo-bifunctional amine-to-amine crosslinker, which reacts primarily with the ε-amino group of lysine residues in proteins.
(§6) In brief: The recombinant protein and the peptide were incubated together with a crosslinker. The reaction was stopped with a quencher. The proteins were precipitated collected and trypsinased, the outcome was analysed by liquid chromatography mass spectrometry (LCMS).
(§7) A mixture solution of purified protein and peptide was prepared in HEPES buffer (50 mM HEPES, 150 mM NaCl (pH 8.0)). Protein TcPink1’s final concentration was 10 μM and hPink1’s final concentration was 2 μM. The peptide was added at a 1:10 or 1:100 protein-to-peptide ratio, and the mixture incubated with agitation for 20 min at room temperature. For BS3 cross-linking, a solution of BS3 in DMSO (150 mM) was used, which was diluted with the proteins to a final BS3 concentration of 1 mM. The cross-linking reaction was incubated at room temperature for 30 min with agitation. The reaction was quenched by adding ammonium bicarbonate to a final concentration of 30 mM.

TcPink1 [5] = target: T1, TcPink1; assay: Cross-linking coupled with mass spectrometry (CLMS), BS3 cross-linker; format: binding; conditions: BS3 cross-link CVP198 to CVP198 (residue 11 to residue 11), self cross-link in the CVP198 + tcPINK1 sample
Description: as §5, §6, §7

[6] = target: T4, Tribolium castaneum Pink1 (TcPink1) (Tribolium castaneum, UniProt D6WMX4 6-570); assay: field-effect biosensing (FEB); TcPink1 (500 nM) covalently immobilised by EDC/sulfo-NHS on a graphene biosensor chip (AGILE Dev Kit, Cardea); peptides as analyte in PBS pH 7.4 at varying concentrations; Hill fit for KD; conditions: both partners purified
T4 construct: No cleavage of MBP is described; also called pMal4c Pink1 (Tribolium castaneum) DU34701; not shown: MBP (from the vector pMal4c)
T4 sequence (looked up): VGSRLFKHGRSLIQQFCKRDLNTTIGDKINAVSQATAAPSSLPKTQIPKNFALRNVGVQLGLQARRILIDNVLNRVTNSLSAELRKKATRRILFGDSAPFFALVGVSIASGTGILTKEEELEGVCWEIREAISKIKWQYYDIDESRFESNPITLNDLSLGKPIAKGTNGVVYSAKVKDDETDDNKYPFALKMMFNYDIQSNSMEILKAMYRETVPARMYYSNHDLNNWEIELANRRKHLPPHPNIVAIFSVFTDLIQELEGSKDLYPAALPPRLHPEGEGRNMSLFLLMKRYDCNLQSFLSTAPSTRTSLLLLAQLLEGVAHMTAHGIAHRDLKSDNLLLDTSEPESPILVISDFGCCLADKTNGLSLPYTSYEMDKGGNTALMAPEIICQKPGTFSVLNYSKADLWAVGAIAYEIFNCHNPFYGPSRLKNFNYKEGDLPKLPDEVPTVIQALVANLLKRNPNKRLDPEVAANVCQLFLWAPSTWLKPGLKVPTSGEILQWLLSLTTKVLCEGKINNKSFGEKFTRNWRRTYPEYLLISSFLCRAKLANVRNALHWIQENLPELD

T3 sequence (P00761 9-231): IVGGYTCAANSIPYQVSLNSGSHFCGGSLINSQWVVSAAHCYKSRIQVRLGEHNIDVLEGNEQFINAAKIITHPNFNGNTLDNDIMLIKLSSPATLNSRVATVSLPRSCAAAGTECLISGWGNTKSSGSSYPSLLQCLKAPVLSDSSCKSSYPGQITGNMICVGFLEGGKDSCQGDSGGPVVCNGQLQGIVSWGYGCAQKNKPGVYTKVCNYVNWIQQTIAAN

Row | Molecule | Kd (TcPink1 [1]) [µM] | metabolised at 2 h, 2.5 mg/mL (trypsin [2]) [%] | metabolised at 0.5 h, 2.5 mg/mL (trypsin [3]) [%] | XL fragmentation score (TcPink1 [4]) | metabolised at 2 h, 2.5 mg/mL (trypsin [3]; 120 min, read-out: Degradation of the peptide by trypsin after 120 min) [%] | XL fragmentation score (TcPink1 [5]) | Kd [6] [µM]
1 | CSCC[C@@H]1NC(=O)[C@H](CCCNC(=N)N)NC(=O)[C@H](CCC(N)=O)NC(=O)[C@H](CC(C)C)NC(=O)CNC(=O)CCC(=O)NCCCC[C@@H](C(=O)NCC(=O)NCC(=O)N[C@@H](Cc2ccc(O)cc2)C(=O)NCC(=O)N[C@@H](CCCNC(=N)N)C(=O)N[C@@H](CCCCN)C(=O)N[C@@H](CCCCN)C(=O)N[C@@H](CCCNC(=N)N)C(=O)N[C@@H](CCCNC(=N)N)C(=O)N[C@@H](CCC(N)=O)C(=O)N[C@@H](CCCNC(=N)N)C(=O)N[C@@H](CCCNC(=N)N)C(=O)N[C@@H](CCCNC(=N)N)C(N)=O)NC(=O)[C@H](CC(C)C)NC(=O)[C@H](CC(=O)O)NC(=O)[C@H](C(C)C)NC(=O)[C@H](CC(C)C)NC(=O)[C@H](C(C)C)NC1=O [CVP-199] (GLQRMVLVDLKGGYGRKKRRQRRR-NH2; linker N-11 via Suc) | 58.31 ± 0.02 | < 75 | 45 | – | – | – | –
2 | Ac-GLQRMVLVDLKGGYGRKKRRQRRR-NH2 [CVP-198] | 130.47 ± 0.01 | – | ~70 | 0.74 | ~95 | 1 | –
3 | B1 | – | – | – | – | – | – | 139

Source: publication PMC9181014, “De Novo Development of Mitochondria-Targeted Molecular Probes Targeting Pink1” (International Journal of Molecular Sciences, 2022)
